Source: patent publication US20190298718A1, “DOSING REGIMEN” (Cyclacel Limited, priority 2017, published 2019)
Where two headings read alike, the source gives them in different places.

Columns and labels:
colon cancer = conditions: model of colon cancer; cited from earlier work
[1] = phase I, patients with a variety of cancers; cited from earlier work
[2] = tested on: cell line that is resistant to cytarabine; conditions: cited from earlier work
AML cell lines = experiment: Combination of CNDAC with hypomethylating agents in AML cell lines; format: cell-based; conditions: more apparent if cells are treated with hypomethylating agents first
Protocol: Previous studies by the applicant have shown that in AML cell lines, the active metabolite of sapacitabine, CNDAC, is synergistic with hypomethylating agents and the synergy is more apparent if cells are treated with hypomethylating agents first. The present invention relates to the identification of new and previously undefined subgroups of AML patients for which treatment with an alternating regimen of sapacitabine and decitabine is particularly effective.

[3] = tested on: acute myeloid leukemia (AML); format: in vivo, human
Protocol: WBC count can be determined, by any suitable institutional standard protocol. By way of example, suitable methods are described in Blumenreich [Reference 12] or Shafer [Reference 13], the contents of which are incorporated by reference.
SWOG classification was determined according to the criteria set out in Table 6 (Slovak et al, Reference 1; the contents of which are incorporated by reference). Cytogenetic testing can be carried out on peripheral blood, for example, in accordance with the standard methodology set forth in Slovak et al [Reference 1] or on bone marrow. Karyotyping or routine cytogenetic analysis involves the examination of chromosomes to identify structural abnormalities. Conventional cytogenetics (karyotyping) is the standard cytogenetic analysis for identifying gross chromosomal abnormalities: aneuploidies & structural (gain/loss, rearrangement). Chromosomes of a dividing human cell can be analysed clearly in white blood cells, specifically T lymphocytes, which are easily collected from blood. Cells from other tissues such as bone marrow, amniotic fluid, and other tissues can also be cultured for cytogenetic analysis. Cells from bone marrow are cultured for several days. Chromosomes in the growing and dividing cells are then fixed, spread on microscope slides, and stained to allow each of the chromosomes to be individually identified. Cytogenetic study was performed using the standard G-banding method (Reference 22, the contents of which are incorporated by reference). […] Findings based on the FISH technique were used as considered supportive information (FISH analysis is based on probes directed to specific chromosomal regions (molecular cytogenetics)) (Reference 22).

[4] = Antecedent MDS/MPN No and WBC ≥10,000
[5] = Antecedent MDS/MPN Yes and WBC <10,000
[6] = SWOG Not unfavourable and WBC <10,000
[7] = SWOG Unfavourable and WBC ≥10,000

In the case of `CCCCCCCCCCCCCCCC(=O)Nc1ccn([C@@H]2O[C@H](CO)[C@@H](O)[C@@H]2C#N)c(=O)n1` [(I), 1-(2-C-cyano-2-deoxy-β-D-arabino-pentofuranosyl)-N^4-palmitoyl cytosine], the anticancer activity (colon cancer) is given as “strong”, the “increasing survival and preventing the spread of colon cancer metastases to the liver, compared with gemcitabine or 5-FU” value (colon cancer) is given as “superior” and the dose-limiting toxicity [1] is given as “myelosuppression”. For the same molecule, the tolerability [1] was “well tolerated”.
In the case of `Nc1ccn([C@@H]2O[C@H](CO)[C@@H](O)[C@@H]2O)c(=O)n1` [cytarabine], the IC50 ([2]; after 5-azacitidine (upregulation of dCK)) is given as 0.55 µM and the IC50 ([2]; before 5-azacitidine) is given as 12.5 µM.
For `N#C[C@H]1[C@H](O)[C@@H](CO)O[C@H]1n1ccc(N)nc1=O` [CNDAC, 2′-C-cyano-2′-deoxy-1-β-D-arabino-pentofuranosyl cytosine], the “interaction with hypomethylating agents” value (AML cell lines) was “synergistic”.
With `Nc1ncn([C@H]2C[C@H](O)[C@@H](CO)O2)c(=O)n1` [Decitabine, 4-amino-1-(2-deoxy-β-D-erythro-pentofuranosyl)-1,3,5-triazin-2(1H)-one] the “1-year survival (%)” value [3, 4] was 36.7%, the “Median overall survival months” value [3, 4] was 5.5 months and the “1-year survival (%)” value [3, 5] was 27.5%. The “CR rate (%)” value [3, 5] was 2.5%, the “Median overall survival months” value [3, 5] was 4.9 months and the “1-year survival (%)” value ([3]; Antecedent MDS/MPN: No) was 35.5%. For the same molecule, the “Median overall survival months” value ([3]; Antecedent MDS/MPN: No) was 6.7 months, the “1-year survival (%)” value ([3]; Antecedent MDS/MPN: Yes) was 32.9% and the “CR median duration, months” value ([3]; Antecedent MDS/MPN: Yes) was 7.1 months. For the same molecule, the “CR rate (%)” value ([3]; Antecedent MDS/MPN: Yes) was 5.7%, the “Median overall survival months” value ([3]; Antecedent MDS/MPN: Yes) was 5.0 months and the “1-year survival (%)” value [3, 6] was 31.8%. The “CR rate (%)” value [3, 6] was 5.7%, the “Median overall survival months” value [3, 6] was 5.6 months and the “1-year survival (%)” value [3, 7] was 30.0%. The “CR rate (%)” value [3, 7] was 0%, the “Median overall survival months” value [3, 7] was 3.0 months and the “1-year survival (%)” value ([3]; SWOG category Not Unfavourable) was 35.9%. For the same molecule, the “Median overall survival months” value ([3]; SWOG category Not Unfavourable) was 5.7 months, the “1-year survival (%)” value ([3]; SWOG category Unfavourable) was 33.0% and the “CR rate (%)” value ([3]; SWOG category Unfavourable) was 9.6%. The “Median overall survival months” value ([3]; SWOG category Unfavourable) was 5.7 months, the Median overall survival ([3]; all randomized patients (n=241 per arm)) was 5.7 months and the “Patients aged 80 and over, median overall survival, months” value ([3]; patients aged 80 and over with <10,000 WBC) was 4.2 months. For the same molecule, the “1-year survival (%)” value ([3]; patients with <10,000 WBC) was 32.9%, the “CR rate (%)” value ([3]; patients with <10,000 WBC) was 8.6% and the “Median overall survival months” value ([3]; patients with <10,000 WBC) was 5.8 months. For the same molecule, the “1-year survival (%)” value ([3]; patients with ≥10,000 WBC) was 38.5% and the “Median overall survival months” value ([3]; patients with ≥10,000 WBC) was 5.5 months.
